Columns and labels:
[1] = glomerular filtration about 125 ml per minute, total renal clearance 600 to 700 ml per minute; cited from earlier work
[2] = background statement; cited from earlier work
[3] = Biodistribution in mice by organ uptake measurements, relative to Tc99m-MAG3 (iodo-131-Hippuran as reference standard); format: in vivo; conditions: for Blood: ratio of uptake of compound to uptake of Tc99m-MAG3 / Hepatic (system): ratio of uptake of compound to uptake of Tc99m-MAG3 / Intestines: ratio of uptake of compound to uptake of Tc99m-MAG3 / Kidneys: ratio of uptake of compound to uptake of Tc99m-MAG3 / Liver: ratio of uptake of compound to uptake of Tc99m-MAG3 / Remainder / Rest of the body: ratio of uptake of compound to uptake of Tc99m-MAG3 / Renal (system): ratio of uptake of compound to uptake of Tc99m-MAG3 / Stomach: ratio of uptake of compound to uptake of Tc99m-MAG3 / Urine: ratio of uptake of compound to uptake of Tc99m-MAG3: intravenous, 10 minutes after administration, each normalised to iodo-131-Hippuran; for Secretion characteristics / organ distribution compared with Tc99m-MAG3 (in words): secretion in urine, retention in kidneys, liver, intestines
Procedure: Tc99m-MAGAG-DA, separated by HPLC, is diluted with physiological saline solution to a concentration of 370 kilobecquerel per mi. Iodo-131-Hippuran is added to this solution as a reference standard. An amount of 0.1 ml of this mixture is injected intravenously into each of the eight mice, so that 37 kilobecquerel of Tc99m-MAGAG-DA and 18.5 kilobecquerel of iodo-131-Hippuran are injected per animal. Measures are taken to collect all the excreted urine. 10 Minutes after the administration the mice are sacrificed. It is ensured that all the blood is collected. All parts of the body are brought in separate tubes and the activity of Tc99m and I131 is determined for each part of the body. From the measured results the relative quantity of both tracer products in urine, kidneys, intestines. liver, blood and the collective remainder of the body is computed. In the same manner, Tc99m-MAGA-DB, separated by HPLC, and Tc99m-mercaptoacetylglycylglycylglycine (Tc99m-MAG3), purified by HPLC, both with iodo-131-Hippuran as a reference standard, are tested in two other groups of 8 and 6 mice, respectively. For all three Tc99m-labelled compounds -- MAGAG-DA, MAGAG-DB and MAG3 -- the relative percentages of Tc99m activity in the various organs are calculated with respect to iodo-131-Hippuran. After this, the ratios of Tc99m-MAGAG-DA and -DB can be calculated with respect to Tc99m-MAG3 in the various organs.
In the same ray as described in Example III the biodistribution of the above compound in mice is determined relative to that of Tc99m-MAG3 by organ uptake measurements.
In the same way as described in Example III the biodistribution of the above compound in mice is determined relative to that of Tc99m-MAG3 by organ uptake measurements.

Row | Molecule | clearance [1] | Secretion by the kidneys (in words) [2] | Blood: ratio of uptake of compound to uptake of Tc99m-MAG3 [3] | Hepatic (system): ratio of uptake of compound to uptake of Tc99m-MAG3 [3] | Intestines: ratio of uptake of compound to uptake of Tc99m-MAG3 [3] | Kidneys: ratio of uptake of compound to uptake of Tc99m-MAG3 [3] | Liver: ratio of uptake of compound to uptake of Tc99m-MAG3 [3] | Remainder / Rest of the body: ratio of uptake of compound to uptake of Tc99m-MAG3 [3] | Renal (system): ratio of uptake of compound to uptake of Tc99m-MAG3 [3] | Stomach: ratio of uptake of compound to uptake of Tc99m-MAG3 [3] | Urine: ratio of uptake of compound to uptake of Tc99m-MAG3 [3] | Secretion characteristics / organ distribution compared with Tc99m-MAG3 (in words) [3]
1 | O=C([O-])CN(CCN(CC(=O)[O-])CC(=O)[O-])CCN(CC(=O)[O-])CC(=O)[O-].[99Tc+4] [chelate of DTPA, Tc99m-diethylene triamine pentascetic acid] | 100 ml of blood plasma per minute |  |  |  |  |  |  |  |  |  |  | 
2 | O=C([O-])CNC(=O)c1ccccc1[131I].[Na+] [iodo-131-Hippuran] |  | secreted actively tubularly |  |  |  |  |  |  |  |  |  | 
3 | Tc99m-mercaptoacetyl-D-alanylglycylglycine [Tc99m-MAAG2-DB] |  |  | 1.17 | 0.84 | 0.95 | 0.66 | 0.79 | 1.45 | 0.96 | 1.40 | 0.99 | more favourable organ distribution than Tc99m-MAG3
4 | Tc99m-mercaptoacetylglycyl-D-alanylglycine [Tc99m-MAGAG-DA] |  |  | 1.12 | 0.60 | 0.44 | 0.36 | 0.68 | 0.90 | 1.05 | 0.83 | 1.13 | significantly better than those of Tc99m-MAG3
5 | Tc99m-mercaptoacetylglycyl-D-alanylglycine [Tc99m-MAGAG-DB] |  |  | 1.20 | 0.59 | 0.41 | 0.37 | 0.68 | 0.94 | 1.07 | 0.85 | 1.14 | significantly better than those of Tc99m-MAG3
6 | Tc99m-mercaptoacetylglycylglycylglycine [Tc99m-MAG3] |  | secreted by the kidneys selectively and slightly faster than iodo-Hippuran |  |  |  |  |  |  |  |  |  | 

— patent US5534497A, “Technetium chelates to be used for determining the renal function” (Mallinckrodt Medical, Inc., priority 1986, dated 1996)
